Assay results from patent publication US20240270762A1, “PENICILLIN-BINDING PROTEIN INHIBITORS” (priority 2021, published 2024).
≈ marks a conversion by molar mass, not a printed value.

Columns and labels:
[1] = target: T1, PBP3 from Escherichia coli (K-12) (Escherichia coli, UniProt P0AD68); experiment: Bocillin-FL fluorescence polarization competition binding, E. coli PBP3
T1 construct: made in house
Procedure, shortened: (§1)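 Purified PBP was preincubated with inhibitor (E. coli PBP3 1.5 μM, 30 min; P. aeruginosa PBP3 0.75 μM, A. baumannii PBP3 0.2 μM and PBP1a 1 μM, 15 min), then Bocillin-FL (0.1 μM; 0.05 μM for PBP1a) added and FP read up to 60 min. EC50 = 50% loss of bound probe.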

[2] = target: T2, PBP3 from Pseudomonas aeruginosa (PAO1) (Pseudomonas aeruginosa, UniProt G3XD46); experiment: Bocillin-FL fluorescence polarization competition binding, P. aeruginosa PBP3; conditions: Binding affinity to P. aeruginosa PBP3; fluorescence polarization competition binding assay using Bocillin-FL; read-out: P. aeruginosa PBP3 Potency
T2 construct: made in house
T2 sequence (G3XD46 whole entry): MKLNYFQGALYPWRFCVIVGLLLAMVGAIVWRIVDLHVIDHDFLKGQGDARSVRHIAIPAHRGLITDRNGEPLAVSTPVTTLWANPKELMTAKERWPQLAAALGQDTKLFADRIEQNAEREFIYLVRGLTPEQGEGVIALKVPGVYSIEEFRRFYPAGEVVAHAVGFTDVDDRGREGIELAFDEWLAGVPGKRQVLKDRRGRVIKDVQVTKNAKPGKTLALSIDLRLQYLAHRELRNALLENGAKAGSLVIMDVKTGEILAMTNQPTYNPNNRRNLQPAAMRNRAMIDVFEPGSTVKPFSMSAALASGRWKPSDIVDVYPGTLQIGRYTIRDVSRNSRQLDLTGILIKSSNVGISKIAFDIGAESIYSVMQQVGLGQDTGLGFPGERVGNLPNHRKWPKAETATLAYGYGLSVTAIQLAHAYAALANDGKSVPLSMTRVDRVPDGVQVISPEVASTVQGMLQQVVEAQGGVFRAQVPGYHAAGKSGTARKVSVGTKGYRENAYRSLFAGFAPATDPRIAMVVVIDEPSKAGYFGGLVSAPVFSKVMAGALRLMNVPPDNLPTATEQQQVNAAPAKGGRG
Procedure, shortened: as §1

P. aeruginosa ATCC 27853 = experiment: microbe, parasite or virus in culture; assay type: cell-based; conditions: Pseudomonas aeruginosa, ATCC27853, read-out: Minimum inhibitory concentration, P. aeruginosa ATCC 27853
P. aeruginosa CDC-0054 = experiment: microbe, parasite or virus in culture; assay type: cell-based; conditions: Pseudomonas aeruginosa, CDC0054, read-out: Minimum inhibitory concentration, P. aeruginosa CDC-0054
P. aeruginosa CDC-0090 = experiment: microbe, parasite or virus in culture; assay type: cell-based; conditions: Pseudomonas aeruginosa, CDC0090, read-out: Minimum inhibitory concentration, P. aeruginosa CDC-0090
P. aeruginosa CDC-0095 = experiment: microbe, parasite or virus in culture; assay type: cell-based; conditions: Pseudomonas aeruginosa, CDC0095, read-out: Minimum inhibitory concentration, P. aeruginosa CDC-0095
A. baumannii CDC-0033 = experiment: microbe, parasite or virus in culture; assay type: cell-based; conditions: Acinetobacter baumannii, CDC0033, read-out: MIC, A. baumannii CDC-0033
A. baumannii CDC-0083 = experiment: microbe, parasite or virus in culture; assay type: cell-based; conditions: Acinetobacter baumannii, CDC0083, read-out: MIC, A. baumannii CDC-0083
[3] = tested on: B. thailandensis ATCC 700388; experiment: microbe, parasite or virus in culture; assay type: cell-based; conditions: Burkholderia thailandensis, ATCC700388, read-out: Minimum inhibitory concentration (MIC), B. thailandensis ATCC 700388
[4] = tested on: B. humptydooensis ATCC BAA-2767; experiment: microbe, parasite or virus in culture; assay type: cell-based; conditions: Burkholderia humptydooensis, ATCCBAA2767, read-out: Minimum inhibitory concentration (MIC), B. humptydooensis ATCC BAA-2767
P. aeruginosa CDC-0110 = experiment: microbe, parasite or virus in culture; assay type: cell-based; conditions: Pseudomonas aeruginosa, CDC0110, read-out: Minimum inhibitory concentration, P. aeruginosa CDC-0110
[5] = tested on: N. gonorrhoeae ATCC 49226; experiment: Liquid broth MIC in Fastidious broth; conditions: Neisseria gonorrhoeae, ATCC49226, read-out: Minimum Inhibitory Concentration, ATCC 49226
N. gonorrhoeae WHO G = experiment: Liquid broth MIC in Fastidious broth; conditions: Neisseria gonorrhoeae, read-out: Minimum Inhibitory Concentration, WHO G
N. gonorrhoeae WHO X = experiment: Liquid broth MIC in Fastidious broth; conditions: Neisseria gonorrhoeae, read-out: Minimum Inhibitory Concentration, WHO X
N. gonorrhoeae CDC-0197 = experiment: Liquid broth MIC in Fastidious broth; conditions: Neisseria gonorrhoeae, CDC0197, read-out: Minimum Inhibitory Concentration, CDC-0197

T1 sequence (P0AD68 1-577): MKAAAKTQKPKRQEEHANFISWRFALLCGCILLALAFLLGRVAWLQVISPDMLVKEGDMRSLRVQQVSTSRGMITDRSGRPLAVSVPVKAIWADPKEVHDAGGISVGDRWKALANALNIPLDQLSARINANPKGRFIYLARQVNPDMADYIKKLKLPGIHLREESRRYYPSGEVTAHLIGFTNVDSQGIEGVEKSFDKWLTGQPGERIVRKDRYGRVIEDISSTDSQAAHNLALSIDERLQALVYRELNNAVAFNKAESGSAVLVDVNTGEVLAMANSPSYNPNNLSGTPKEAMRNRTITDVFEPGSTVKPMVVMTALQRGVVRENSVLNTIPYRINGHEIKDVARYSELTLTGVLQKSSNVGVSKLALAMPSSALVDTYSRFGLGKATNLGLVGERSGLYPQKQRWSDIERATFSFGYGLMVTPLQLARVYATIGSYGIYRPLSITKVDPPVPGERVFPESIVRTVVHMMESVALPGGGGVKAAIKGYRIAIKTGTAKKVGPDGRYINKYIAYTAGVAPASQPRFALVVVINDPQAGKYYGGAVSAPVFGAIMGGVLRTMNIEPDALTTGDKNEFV

| SMILES | EC50 [1] | IC50 [2] | MIC (P. aeruginosa ATCC 27853) | MIC (P. aeruginosa CDC-0054) | MIC (P. aeruginosa CDC-0090) | MIC (P. aeruginosa CDC-0095) | MIC (A. baumannii CDC-0033) | MIC (A. baumannii CDC-0083) | MIC [3] | MIC [4] | MIC (P. aeruginosa CDC-0110) | MIC [5] | MIC (N. gonorrhoeae WHO G) | MIC (N. gonorrhoeae WHO X) | MIC (N. gonorrhoeae CDC-0197) |
| --- | --- | --- | --- | --- | --- | --- | --- | --- | --- | --- | --- | --- | --- | --- | --- |
| O=C(O)c1c(F)ccc2c1OB(O)[C@@H](NC(=O)C(NC(=O)N1CCN(CCNC(=O)[C@@H]3CCCN3)C1=O)c1cc(F)c(O)c(O)c1Cl)C2 (stereo partly drawn) [Example 248, (3R)-3-(2-(2-chloro-5-fluoro-3,4-dihydroxyphenyl)-2-(2-oxo-3-(2-((S)-pyrrolidine-2-carboxamido)ethyl)imidazolidine-1-carboxamido)acetamido)-7-fluoro-2-hydroxy-3,4-dihydro-2H-benzo[e][1,2]oxaborinine-8-carboxylic acid] | 10 to 50 µM | 10 to 50 µM | 2 to 4 µg/mL (≈ 2.88 to 5.76 µM) | 2 to 4 µg/mL (≈ 2.88 to 5.76 µM) | 8 to 16 µg/mL (≈ 11.5 to 23 µM) | 8 to 16 µg/mL (≈ 11.5 to 23 µM) | 2 to 4 µg/mL (≈ 2.88 to 5.76 µM) | < 1 µg/mL | 2 to 4 µg/mL (≈ 2.88 to 5.76 µM) | < 1 µg/mL | < 1 µg/mL | 16 to 32 µg/mL (≈ 23 to 46.1 µM) | 16 to 32 µg/mL (≈ 23 to 46.1 µM) | > 64 µg/mL | 16 to 32 µg/mL (≈ 23 to 46.1 µM) |
| O=C(NCCN1CCN(C(=O)NC(C(=O)N[C@H]2Cc3ccc(F)c(C(=O)O)c3OB2O)c2cc(F)c(O)c(O)c2Cl)C1=O)Nc1cccc(O)c1 (stereo partly drawn) [Example 249, (3R)-3-(2-(2-chloro-5-fluoro-3,4-dihydroxyphenyl)-2-(3-(2-(3-(3-hydroxyphenyl)ureido)ethyl)-2-oxoimidazolidine-1-carboxamido)acetamido)-7-fluoro-2-hydroxy-3,4-dihydro-2H-benzo[e][1,2]oxaborinine-8-carboxylic acid] | < 10 µM | < 10 µM | 2 to 4 µg/mL (≈ 2.73 to 5.46 µM) | 2 to 4 µg/mL (≈ 2.73 to 5.46 µM) | < 1 µg/mL | 32 to 64 µg/mL (≈ 43.7 to 87.3 µM) | 2 to 4 µg/mL (≈ 2.73 to 5.46 µM) | < 1 µg/mL | 2 to 4 µg/mL (≈ 2.73 to 5.46 µM) | < 1 µg/mL | < 1 µg/mL | 16 to 32 µg/mL (≈ 21.8 to 43.7 µM) | 16 to 32 µg/mL (≈ 21.8 to 43.7 µM) | > 64 µg/mL | > 64 µg/mL |
| O=C(NCCN1CCN(C(=O)NC(C(=O)N[C@H]2Cc3ccc(F)c(C(=O)O)c3OB2O)c2cc(F)c(O)c(O)c2Cl)C1=O)Nc1ccncc1 (stereo partly drawn) [Example 250, (3R)-3-(2-(2-chloro-5-fluoro-3,4-dihydroxyphenyl)-2-(2-oxo-3-(2-(3-(pyridin-4-yl)ureido)ethyl)imidazolidine-1-carboxamido)acetamido)-7-fluoro-2-hydroxy-3,4-dihydro-2H-benzo[e][1,2]oxaborinine-8-carboxylic acid] | < 10 µM | < 10 µM | 2 to 4 µg/mL (≈ 2.79 to 5.57 µM) | 8 to 16 µg/mL (≈ 11.1 to 22.3 µM) | 2 to 4 µg/mL (≈ 2.79 to 5.57 µM) | 32 to 64 µg/mL (≈ 44.6 to 89.2 µM) | 2 to 4 µg/mL (≈ 2.79 to 5.57 µM) | < 1 µg/mL | > 128 µg/mL | < 1 µg/mL | 2 to 4 µg/mL (≈ 2.79 to 5.57 µM) | > 64 µg/mL | > 64 µg/mL | > 64 µg/mL | > 64 µg/mL |
| O=C(NCCN1CCN(C(=O)NC(C(=O)N[C@H]2Cc3ccc(F)c(C(=O)O)c3OB2O)c2cc(F)c(O)c(O)c2Cl)C1=O)Nc1cccnc1 (stereo partly drawn) [Example 251, (3R)-3-(2-(2-chloro-5-fluoro-3,4-dihydroxyphenyl)-2-(2-oxo-3-(2-(3-(pyridin-3-yl)ureido)ethyl)imidazolidine-1-carboxamido)acetamido)-7-fluoro-2-hydroxy-3,4-dihydro-2H-benzo[e][1,2]oxaborinine-8-carboxylic acid] | < 10 µM | < 10 µM | < 1 µg/mL | 8 to 16 µg/mL (≈ 11.1 to 22.3 µM) | 2 to 4 µg/mL (≈ 2.79 to 5.57 µM) | 8 to 16 µg/mL (≈ 11.1 to 22.3 µM) | 2 to 4 µg/mL (≈ 2.79 to 5.57 µM) | 2 to 4 µg/mL (≈ 2.79 to 5.57 µM) | < 1 µg/mL | < 1 µg/mL | < 1 µg/mL | 16 to 32 µg/mL (≈ 22.3 to 44.6 µM) | 16 to 32 µg/mL (≈ 22.3 to 44.6 µM) | > 64 µg/mL | > 64 µg/mL |
